Converted amounts (≈) assume the structure as drawn. Read-outs that look alike come from different tables or passages of the source.
Columns and labels:
E. faecalis ATCC 29212 = assay: direct antimicrobial activity (disc-diffusion, MIC, MBC); type: cell-based; conditions: Enterococcus faecalis, ATCC29212
Protocol: (§1) Direct antimicrobial activity against Gram-negative and Gram-positive bacterial strains, as well as against yeast, was examined as previously described by the disc-diffusion test, the MIC determination assay, the MBC (for bacteria), and the MFC (for yeasts) determination tests. All the above-mentioned tests were performed according to EUCAST [71, 72] and CLSI [73, 74, 75, 76, 77] recommendations. The following reference agents were used: nitrofurantoin (for Gram-negative rods), linezolid (for Gram-positive bacteria), and fluconazole (in the case of fungi). The new aromatic diboronic acids were dissolved in DMSO (Sigma, St. Louis, MO, USA). In the disc-diffusion test, the concentration of new agents was 0.4 mg per disc.

E. faecium ATCC 6057 = assay: as above; type: cell-based; conditions: Enterococcus faecium, ATCC6057
Protocol: as §1

[1] = tested on: S. aureus ATCC 43300 MRSA; assay: as above; type: cell-based; conditions: Staphylococcus aureus; for zone of inhibition at 0.4 mg/disc: 0.4 mg per disc, 9 mm disc (linezolid 0.03 mg, 6 mm disc), - no zone, read-out: Diameter of inhibition zone
Protocol: as §1

S. aureus ATCC 6538P = assay: as above; type: cell-based; conditions: Staphylococcus aureus, ATCC6538P; for zone of inhibition at 0.4 mg/disc: 0.4 mg per disc, 9 mm disc (linezolid 0.03 mg, 6 mm disc), - no zone, read-out: Diameter of inhibition zone
Protocol: as §1

[2] = tested on: S. epidermidis ATCC 12228; assay: as above; type: cell-based; conditions: Staphylococcus epidermidis, ATCC12228; for zone of inhibition at 0.4 mg/disc: 0.4 mg per disc, 9 mm disc (linezolid 0.03 mg, 6 mm disc), - no zone, read-out: Diameter of inhibition zone
Protocol: as §1

B. subtilis ATCC 6633 = assay: direct antimicrobial activity (disc-diffusion); type: cell-based; conditions: Bacillus subtilis, ATCC6633; 0.4 mg per disc, 9 mm disc (linezolid 0.03 mg, 6 mm disc); - no zone; read-out: Diameter of inhibition zone
Protocol: as §1

[3] = tested on: C. parapsilosis ATCC 22019; assay: antifungal activity (disc-diffusion, MIC, MFC); type: cell-based, Candida parapsilosis; conditions: Lodderomyces parapsilosis, ATCC22019; fluconazole by Etest
Protocol: as §1

[4] = tested on: C. guilliermondii IBA 155; assay: antifungal activity (disc-diffusion, MIC, MFC); type: cell-based, Candida guilliermondii; conditions: Meyerozyma guilliermondii, IBA155; fluconazole by Etest
Protocol: as §1

C. krusei ATCC 6258 = assay: antifungal activity (disc-diffusion, MIC, MFC); type: cell-based, Candida krusei; conditions: Pichia kudriavzevii, ATCC6258; fluconazole by Etest
Protocol: as §1

C. albicans ATCC 90028 = assay: antifungal activity (disc-diffusion, MIC, MFC); type: cell-based; conditions: Candida albicans, ATCC90028; fluconazole by Etest
Protocol: as §1

C. tropicalis ATCC 750 = assay: antifungal activity (disc-diffusion, MIC, MFC); type: cell-based; conditions: Candida tropicalis, ATCC750; fluconazole by Etest
Protocol: as §1

C. tropicalis IBA 171 = assay: antifungal activity (disc-diffusion, MIC, MFC); type: cell-based; conditions: Candida tropicalis, IBA171; fluconazole by Etest
Protocol: as §1

S. cerevisiae ATCC 9763 = assay: antifungal activity (disc-diffusion, MIC, MFC); type: cell-based; conditions: Saccharomyces cerevisiae, ATCC9763; fluconazole by Etest
Protocol: as §1

[5] = MTT-based viability assay; type: cell-based; conditions: human, 72 h, read-out: Viability of MRC-5 cells (% of viable cells ± SD)
Protocol: MRC-5 human fibroblasts (ECACC) were cultured in MEME, Minimum Essential Medium Eagle (Merck) supplemented with 10% fetal bovine serum (Merck), 2 mM l-glutamine, antibiotics (100 U/mL penicillin, 100 μg/mL streptomycin, Merck) and 1% non-essential amino acids (Merck). Cells were grown in 75 cm^2 cell culture flasks (Sarstedt) in a humidified atmosphere of CO2/air (5/95%) at 37 °C. MTT-based viability assay was conducted as described previously. Optical densities were measured at 570 nm using a BioTek microplate reader. All measurements were carried out in three replicates, and the results were expressed as a percent of viable cells versus control cells.

E. coli 76 KPC-2(+) = assay: MIC of tested agent alone, microdilution; type: cell-based; conditions: Escherichia coli; read-out: MIC of agent alone
Protocol: (§2) To examine the ability of tested agents to inhibit various carbapenemases and AmpC-enzymes, their synergy with antibiotics against β-lactamase-producing strains was assessed by checkerboard microdilution assay, with slight modification. Checkerboards were prepared in microtiter plates, with seven two-fold dilutions of β-lactams (1–64 mg/L) in the rows and three two-fold dilutions of tested agents and PBA (4–16 mg/L) in the columns. Tested agents’ concentrations were limited to the concentrations at which the newest commercially available BLIs (vaborbactam, relebactam, and avibactam) are used in susceptibility testing. Plates were inoculated and incubated as in the MIC microdilution assay. Parallel, MICs of tested agents and PBA alone were determined by the microdilution assay. Following the incubation, antibiotic MICs in the presence of each agent’s concentration were determined. Moreover, for the first well without growth found in each checkerboard row and column along the growth/non-growth interface, the fractional inhibitory concentration index (FICI) was calculated using the formula below:FICI = [(MIC of antibiotic in combination)/(MIC of antibiotic alone)] + [(MIC of the tested agent in combination)/(MIC of tested agent alone)].

E. coli 77 CMY-2(+) = assay: MIC of tested agent alone, microdilution; type: cell-based; conditions: Escherichia coli; read-out: MIC of agent alone
Protocol: as §2

[6] = tested on: K. pneumoniae 81 KPC-3(+); assay: MIC of tested agent alone, microdilution; type: cell-based; conditions: Klebsiella pneumoniae; read-out: MIC of agent alone
Protocol: as §2

[7] = tested on: K. pneumoniae 83 KPC-3(+), CTX-M-3(+); assay: MIC of tested agent alone, microdilution; type: cell-based; conditions: Klebsiella pneumoniae; read-out: MIC of agent alone
Protocol: as §2

[8] = tested on: K. pneumoniae ATCC BAA-1705 KPC-2(+); assay: MIC of tested agent alone, microdilution; type: cell-based; conditions: Klebsiella pneumoniae, ATCCBAA1705; read-out: MIC of agent alone
Protocol: as §2

[9] = tested on: P. aeruginosa MUW 700 AmpC(+); assay: MIC of tested agent alone, microdilution; type: cell-based; conditions: Pseudomonas aeruginosa; read-out: MIC of agent alone
Protocol: as §2

[10] = tested on: K. pneumoniae ATCC BAA 1705 KPC-2-positive; assay: combination disc test CDT-KPC; type: cell-based; conditions: Klebsiella pneumoniae, BAA1705; agent 0.3 mg per disc; read-out: Diameter of inhibition zone, MEM-10 disc with agent
[11] = tested on: P. aeruginosa MUW 700 cAmpC-positive; assay: combination disc test CDT-AmpC; type: cell-based; conditions: Pseudomonas aeruginosa; agent 0.3 mg per disc; read-out: Diameter of inhibition zone, CAZ-30 disc with agent
[12] = tested on: E. coli 77 CMY-2-positive; assay: combination disc test CDT-AmpC; type: cell-based; conditions: Escherichia coli; agent 0.3 mg per disc; read-out: Diameter of inhibition zone, CAZ-30 disc with agent
[13] = tested on: K. pneumoniae ATCC 700603 ESBL-positive; assay: combination disc test CDT-ESBL; type: cell-based; conditions: Klebsiella pneumoniae, ATCC700603; agent 0.3 mg per disc; read-out: Diameter of inhibition zone, CAZ-30 disc with agent
[14] = 0.4 mg per disc, 9 mm disc (linezolid 0.03 mg, 6 mm disc), - no zone, read-out: Diameter of inhibition zone

MIC (E. faecalis ATCC 29212) | MIC (E. faecium ATCC 6057) | MIC [1] | MIC (S. aureus ATCC 6538P) | MIC [2] | MIC [3] | MIC [4] | MIC (C. krusei ATCC 6258) | MIC (C. albicans ATCC 90028) | MIC (C. tropicalis ATCC 750) | MIC (C. tropicalis IBA 171) | MIC (S. cerevisiae ATCC 9763) | SMILES | zone of inhibition at 0.4 mg/disc [1] | zone of inhibition at 0.4 mg/disc (S. aureus ATCC 6538P) | zone of inhibition at 0.4 mg/disc (B. subtilis ATCC 6633) | viability at 72 h, 12.5 mg/L ([5]; MRC-5 human fibroblasts) | viability at 72 h, 25 mg/L ([5]; MRC-5 human fibroblasts) | viability at 72 h, 50 mg/L ([5]; MRC-5 human fibroblasts) | MBC (S. aureus ATCC 6538P) | zone of inhibition at 0.4 mg/disc [2] | also measured
> 400 µg/mL | 400 µg/mL (≈ 1910 µM) | > 400 µg/mL | > 400 µg/mL | > 400 µg/mL | > 400 µg/mL | > 400 µg/mL | > 400 µg/mL | > 400 µg/mL | > 400 µg/mL | > 400 µg/mL | > 400 µg/mL | OB(O)c1cc(B(O)O)cc(B(O)O)c1 [4a, benzene-1,3,5-triboronic acid] |  |  |  | 102 ± 6.9% | 84.4 ± 6.4% | 87.9 ± 8.5% |  |  | MIC (E. coli 76 KPC-2(+)): > 400 µg/mL; MIC (E. coli 77 CMY-2(+)): > 400 µg/mL; MIC [6]: > 400 µg/mL; MIC [7]: > 400 µg/mL; MIC [8]: > 400 µg/mL; MIC [9]: > 400 µg/mL; zone of inhibition at 300 µg/disc [10]: 6 mm; zone of inhibition at 300 µg/disc [11]: 16 mm; zone of inhibition at 300 µg/disc [12]: 20 mm; zone of inhibition at 300 µg/disc [13]: 14 mm
2 µg/mL (≈ 5.93 µM) | 2 µg/mL (≈ 5.93 µM) | 2 µg/mL (≈ 5.93 µM) | 1 µg/mL (≈ 2.96 µM) | 1 µg/mL (≈ 2.96 µM) |  |  |  |  |  |  |  | CC(=O)NC[C@H]1CN(c2ccc(N3CCOCC3)c(F)c2)C(=O)O1 [LIN, linezolid, reference compound] | 25 mm | 25 mm | 30 mm |  |  |  | > 128 µg/mL | 26 mm | MBC (E. faecalis ATCC 29212): > 128 µg/mL; zone of inhibition at 0.4 mg/disc (E. faecalis ATCC 29212; [14]): 15 mm; MBC (E. faecium ATCC 6057): > 128 µg/mL; zone of inhibition at 0.4 mg/disc (E. faecium ATCC 6057; [14]): 14 mm; MBC [1]: > 128 µg/mL; MBC [2]: > 128 µg/mL

The remaining lines, values behind:

SMILES | MIC (E. faecalis ATCC 29212) | MIC (E. faecium ATCC 6057) | MIC [1] | MIC (S. aureus ATCC 6538P) | MIC [2] | MIC [3] | MIC [4] | MIC (C. krusei ATCC 6258) | MIC (C. albicans ATCC 90028) | MIC (C. tropicalis ATCC 750) | MIC (C. tropicalis IBA 171) | MIC (S. cerevisiae ATCC 9763) | zone of inhibition at 0.4 mg/disc [1] | zone of inhibition at 0.4 mg/disc (S. aureus ATCC 6538P) | zone of inhibition at 0.4 mg/disc (B. subtilis ATCC 6633) | viability at 72 h, 12.5 mg/L ([5]; MRC-5 human fibroblasts) | viability at 72 h, 25 mg/L ([5]; MRC-5 human fibroblasts) | viability at 72 h, 50 mg/L ([5]; MRC-5 human fibroblasts) | MBC (S. aureus ATCC 6538P) | zone of inhibition at 0.4 mg/disc [2] | also measured
OB(O)c1cc(C(F)(F)F)c(B(O)O)cc1C(F)(F)F [1h] | 400 µg/mL (≈ 1330 µM) | 400 µg/mL (≈ 1330 µM) | 400 µg/mL (≈ 1330 µM) | 400 µg/mL (≈ 1330 µM) | 200 µg/mL (≈ 663 µM) | > 400 µg/mL | > 400 µg/mL | > 400 µg/mL | > 400 µg/mL | > 400 µg/mL | > 400 µg/mL | > 400 µg/mL | 14 mm | 13 mm | 12 mm | 101 ± 4.3% | 104 ± 5% | 98.8 ± 3.2% |  |  | 
C[Si](C)(C)c1cc(B(O)O)c([Si](C)(C)C)cc1B(O)O [1k] | > 100 µg/mL | 100 µg/mL (≈ 322 µM) | 100 µg/mL (≈ 322 µM) | 100 µg/mL (≈ 322 µM) | 100 µg/mL (≈ 322 µM) | > 100 µg/mL | > 100 µg/mL | > 100 µg/mL | > 100 µg/mL | > 100 µg/mL | > 100 µg/mL | > 100 µg/mL |  |  | 11 mm |  |  |  |  |  | viability at 72 h, 12.5 mg/L [5]: 84.3 ± 0.9%; viability at 72 h, 25 mg/L [5]: 74.2 ± 3.5%; viability at 72 h, 50 mg/L [5]: 28.9 ± 1%
OB(O)c1ccc(Br)c(B(O)O)c1 [2f] | > 400 µg/mL | 200 µg/mL (≈ 818 µM) | 200 µg/mL (≈ 818 µM) | 50 µg/mL (≈ 204 µM) | 100 µg/mL (≈ 409 µM) | > 400 µg/mL | > 400 µg/mL | 400 µg/mL (≈ 1640 µM) | > 400 µg/mL | > 400 µg/mL | > 400 µg/mL | 200 µg/mL (≈ 818 µM) | 13 mm | 14 mm | 22 mm | 103 ± 8.8% | 92.1 ± 0.9% | 76.2 ± 0.7% | 400 µg/mL (≈ 1640 µM) | 25 mm | MIC (E. coli 76 KPC-2(+)): > 400 µg/mL; MIC (E. coli 77 CMY-2(+)): > 400 µg/mL; MIC [6]: > 400 µg/mL; MIC [7]: > 400 µg/mL; MIC [8]: > 400 µg/mL; MIC [9]: > 400 µg/mL; zone of inhibition at 300 µg/disc [10]: 6 mm; zone of inhibition at 300 µg/disc [11]: 21 mm; zone of inhibition at 300 µg/disc [12]: 19 mm; zone of inhibition at 300 µg/disc [13]: 15 mm
